Reference: patent US11578055B2, “Triazacyclododecansulfonamide (“TCD”)-based protein secretion inhibitors” (KEZAR LIFE SCIENCES, priority 2018, dated 2023)
Like-named read-outs stand apart in the source and are kept apart here.

Key:
[1] = tested on: multiple myeloma cell line U266B1; assay: U266 Cell Viability Assay; assay type: cell-based, human; details: Homo sapiens, U-266, 48 hr
Summary of the method: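 U266B1 myeloma cells in RPMI 1640 with 10% FBS were treated with compound dilutions for 48 h at 37° C, 5% CO2. Viability was read as CellTiter-Glo luminescence. Data for structures drawn without stereochemistry refer to stereoisomer mixtures.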

[2] = tested on: multiple myeloma cell line NCl-H929; assay: H929 Cell Viability Assay; assay type: cell-based, human; details: Homo sapiens, NCI-H929, 48 h
Summary of the method: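 NCI-H929 myeloma cells in RPMI 1640 with 10% FBS were treated with compound dilutions for 48 h at 37 °C, and viability was then read by CellTiter-Glo luminescence. Compounds drawn without stereochemistry were tested as stereoisomer mixtures.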

[3] = In Vitro Microsome Stability Assay (human); assay type: in vitro ADME
Summary of the method: (§1)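 The value reported is the percentage of parent left after 30 min, calculated from analyte/IS peak-area ratios relative to time zero by LC-MS/MS. Incubations ran at 37° C in 0.1 M potassium phosphate with NADPH and microsomes (stock 20 mg/mL), with compound added from a 0.25 mM DMSO stock. Acetonitrile containing IS stopped the reactions.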

[4] = In Vitro Microsome Stability Assay (rat); assay type: in vitro ADME
Summary of the method: as §1

[5] = tested on: full length TNFα (amino acids 1-233) fused to Gaussia Luciferase; assay: Dox Induced TNFα-FL-Gluc Assay; assay type: cell-based; details: 24 hr, read-out: 24 hr Dox Inducible TNFaFLGluc 293FRT/TO: Mean IC50
Summary of the method: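 Stable Flp-In 293 T-REx line expressing doxycycline-inducible full-length TNFα fused to Gaussia luciferase; cells plated the day before, then treated with compound dilutions in doxycycline-containing medium at 37° C, 5% CO2. Unspecified stereocentres mean stereoisomer mixtures were tested.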

[6] = In Vitro Microsome Stability Assay (mouse); assay type: in vitro ADME
Summary of the method: as §1

[7] = In Vitro Microsome Stability Assay (monkey); assay type: in vitro ADME
Summary of the method: as §1

[8] = tested on: PD1 signal sequence plus 10 amino acids fused to Gaussia Luciferase (PD1-ss+10aa/Gaussia Luciferase); assay: Dox Induced PD1-ss-Gluc Assay; assay type: cell-based; details: 24 hr, read-out: 24 hr Dox Inducible PD1ssGluc 293FRT/TO: Mean IC50
Summary of the method: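 Stable Flp-In 293 T-REx line expressing the fusion under tetracycline-inducible control, plated the day before assay. Compound dilutions added with doxycycline and incubated at 37 °C, 5% CO2; unspecified stereocentres mean data refer to stereoisomer mixtures.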

[9] = human liver microsomes, 30 min w/ NADPH
[10] = rat liver microsomes, 30 min w/ NADPH
[11] = mouse liver microsomes, 30 min w/ NADPH
[12] = monkey liver microsomes, 30 min w/ NADPH
[13] = U266, read-out: 48 hr U266 Viability Celltiter-Glo: Mean EC50
[14] = H929, read-out: 48 hr H929 Viability Celltiter-Glo: Mean EC50

Structure (SMILES) | EC50 ([1]; U266, Celltiter-Glo) [µM] | EC50 ([2]; H929, Celltiter-Glo) [µM] | Liver Microsome Stability-% Left after 30 min w/ NADPH (%) Human [3, 9] [%] | Liver Microsome Stability-% Left after 30 min w/ NADPH (%) Rat [4, 10] [%] | IC50 ([5]; Dox inducible, 293FRT/TO cells) [µM] | Liver Microsome Stability-% Left after 30 min w/ NADPH (%) Mouse [6, 11] [%] | Liver Microsome Stability-% Left after 30 min w/ NADPH (%) Monkey [7, 12] [%] | IC50 ([8]; Dox inducible, 293FRT/TO cells) [µM] | EC50 [1, 13] [µM] | EC50 [2, 14] [µM] | Liver Microsome Stability-% Left after 30 min w/ NADPH (%) Human ([3]; human, 30 min, NADPH) [%] | Liver Microsome Stability-% Left after 30 min w/ NADPH (%) Rat ([4]; rat, 30 min, NADPH) [%] | IC50 ([5]; 293FRT/TO) [µM] | Liver Microsome Stability-% Left after 30 min w/ NADPH (%) Mouse ([6]; mouse, 30 min, NADPH) [%] | Liver Microsome Stability-% Left after 30 min w/ NADPH (%) Monkey ([7]; monkey, 30 min, NADPH) [%] | IC50 ([8]; 293FRT/TO) [µM]
C=C1CN(S(=O)(=O)c2ccc(N(C)C)cc2)CCCN(CC2CCCCC2)CCCN(S(=O)(=O)N2CCCCC2)C1 [A13, 4-{[9-(cyclohexylmethyl)-3-methylidene-5-(piperidine-1-sulfonyl)-1,5,9-triazacyclododecan-1-yl]sulfonyl}-N,N-dimethylaniline] | – | – | – | – | – | – | – | – | > 25 | 0.987 | 0.65 | 0.1 | 1.47 | 0.04 | 0.1 | 0.025
CN(C)c1ccc(S(=O)(=O)N2CCCN(CC3CCCCC3)CCCN(S(=O)(=O)N3CCC(c4ccccc4)CC3)CCC2)cc1 [A42, 4-{[5-(cyclohexylmethyl)-9-[(4-phenylpiperidin-1-yl)sulfonyl]-1,5,9-triazacyclododecan-1-yl]sulfonyl}-N,N-dimethylaniline] | – | – | – | – | – | – | – | – | > 25 | > 25 | 2.65 | 7.69 | > 25 | 0.79 | 0.81 | 0.696
C=C1CN(S(=O)(=O)c2ccc(N(C)C)cc2)CCCN(CC2CCCCC2)CCCN(S(=O)(=O)N2CCN(c3ccccc3)C(=O)C2)C1 [A48, 4-{[9-(cyclohexylmethyl)-5-[4-(dimethylamino)benzenesulfonyl]-3-methylidene-1,5,9-triazacyclododecan-1-yl]sulfonyl}-1-phenylpiperazin-2-one] | – | – | – | – | – | – | – | – | > 25 | > 25 | 0.19 | 0.4 | > 25 | 0.07 | 0.1 | 0.991
C=C1CN(S(=O)(=O)c2ccc(N(C)C)cc2)CCCN(CC2CCCCC2)CCCN(S(=O)(=O)N2CCCC(c3ccccc3)C2)C1 (centres unmarked) [A38, 4-{[9-(cyclohexylmethyl)-3-methylidene-5-[(3-phenylpiperidin-1-yl)sulfonyl]-1,5,9-triazacyclododecan-1-yl]sulfonyl}-N,N-dimethylaniline] | – | – | – | – | – | – | – | – | > 25 | > 11.8 | 11.4 | 24.2 | 5.49 | 12.6 | 9.04 | 0.0751
C=C1CN(S(=O)(=O)c2ccc(N(C)C)cc2)CCCN(CC2CCCCC2)CCCN(S(=O)(=O)N(C)C)C1 [A16, 9-(cyclohexylmethyl)-5-[4-(dimethylamino)benzenesulfonyl]-N,N-dimethyl-3-methylidene-1,5,9-triazacyclododecane-1-sulfonamide] | – | – | – | – | – | – | – | – | > 25 | 4.98 | 0.11 | 2.62 | 6.34 | 2.09 | 41.1 | 0.108
C=C1CN(S(=O)(=O)CC)CCCN(CC2CCCCC2)CCCN(S(=O)(=O)c2ccc(C)cc2)C1 [A6, 9-(cyclohexylmethyl)-1-(ethanesulfonyl)-5-(4-methylbenzenesulfonyl)-3-methylidene-1,5,9-triazacyclododecane] | – | – | – | – | – | – | – | – | > 25 | 24.1 | 0.53 | 0.17 | > 25 | 0.12 | 0.44 | 4.75

Continued, values first:

EC50 ([1]; U266, Celltiter-Glo) [µM] | EC50 ([2]; H929, Celltiter-Glo) [µM] | Liver Microsome Stability-% Left after 30 min w/ NADPH (%) Human [3, 9] [%] | Liver Microsome Stability-% Left after 30 min w/ NADPH (%) Rat [4, 10] [%] | IC50 ([5]; Dox inducible, 293FRT/TO cells) [µM] | Liver Microsome Stability-% Left after 30 min w/ NADPH (%) Mouse [6, 11] [%] | Liver Microsome Stability-% Left after 30 min w/ NADPH (%) Monkey [7, 12] [%] | IC50 ([8]; Dox inducible, 293FRT/TO cells) [µM] | EC50 [1, 13] [µM] | EC50 [2, 14] [µM] | Liver Microsome Stability-% Left after 30 min w/ NADPH (%) Human ([3]; human, 30 min, NADPH) [%] | Liver Microsome Stability-% Left after 30 min w/ NADPH (%) Rat ([4]; rat, 30 min, NADPH) [%] | IC50 ([5]; 293FRT/TO) [µM] | Liver Microsome Stability-% Left after 30 min w/ NADPH (%) Mouse ([6]; mouse, 30 min, NADPH) [%] | Liver Microsome Stability-% Left after 30 min w/ NADPH (%) Monkey ([7]; monkey, 30 min, NADPH) [%] | IC50 ([8]; 293FRT/TO) [µM] | Structure (SMILES)
12.6 | 9.44 | 0.26 | 0.1 | > 25 | 0.15 | 0.08 | 7.38 | – | – | – | – | – | – | – | – | CN(C)c1ccc(S(=O)(=O)N2CCCN(CC3CCCCC3)CCCN(S(=O)(=O)N3CCCCC3)CC2)cc1 [B3, 4-{[8-(cyclohexylmethyl)-4-(piperidine-1-sulfonyl)-1,4,8-triazacycloundecan-1-yl]sulfonyl}-N,N-dimethylaniline]
– | – | – | – | – | – | – | – | > 25 | > 25 | 4.87 | 0.97 | > 25 | 1.18 | 0.34 | 1.54 | CN(C)c1ccc(S(=O)(=O)N2CCCN(CC3CCCCC3)CCCN(S(=O)(=O)N3CCC(c4ccccc4)CC3)CC(O)C2)cc1 (centres unmarked) [A55, 9-(cyclohexylmethyl)-1-[4-(dimethylamino)benzenesulfonyl]-5-[(4-phenylpiperidin-1-yl)sulfonyl]-1,5,9-triazacyclododecan-3-ol]
– | – | – | – | – | – | – | – | > 25 | 7.72 | 5.55 | 17.2 | 2.01 | 11.5 | 6.75 | 0.0633 | C=C1CN(S(=O)(=O)c2ccc(N(C)C)cc2)CCCN(CC2CCCCC2)CCCN(S(=O)(=O)N2CCc3cc(OC)ccc3C2)C1 [A71, 4-{[9-(cyclohexylmethyl)-5-[(6-methoxy-1,2,3,4-tetrahydroisoquinolin-2-yl)sulfonyl]-3-methylidene-1,5,9-triazacyclododecan-1-yl]sulfonyl}-N,N-dimethylaniline]
> 25 | > 25 | 0.49 | 3.74 | > 25 | 0.36 | 0.26 | 3.64 | – | – | – | – | – | – | – | – | CN(C)c1ccc(S(=O)(=O)N2C/C=C/CN(S(=O)(=O)N3CCC(c4ccccc4)CC3)CCCN(CC3CCCCC3)CCC2)cc1 [B9, 4-{[(11E)-5-(cyclohexylmethyl)-9-[(4-phenylpiperidin-1-yl)sulfonyl]-1,5,9-triazacyclotridec-11-en-1-yl]sulfonyl}-N,N-dimethylaniline]
